# Data as given in PMC9939733 (The Journal of Biological Chemistry, 2023).
# Where a chain is given by its changes, count along the chain named.
# Experiments:
# Assay type in all cases: biochemical
# R172K IDH2 [1] = target: T1, R172K IDH2 (Homo sapiens, UniProt P48735, R172K); experiment: Absorbance assay, variant activity in the presence of equimolar 2OG (inhibition screen); settings: 1.0 mM 2OG and 1.0 mM test compound, 0.03 μM R172K IDH2, 50 μM NADPH
# T1 construct: made in house; host or cells: Sf21 insect cells (cell pellets prepared at Evotec)
# T1 sequence (P48735 40-452 R172K): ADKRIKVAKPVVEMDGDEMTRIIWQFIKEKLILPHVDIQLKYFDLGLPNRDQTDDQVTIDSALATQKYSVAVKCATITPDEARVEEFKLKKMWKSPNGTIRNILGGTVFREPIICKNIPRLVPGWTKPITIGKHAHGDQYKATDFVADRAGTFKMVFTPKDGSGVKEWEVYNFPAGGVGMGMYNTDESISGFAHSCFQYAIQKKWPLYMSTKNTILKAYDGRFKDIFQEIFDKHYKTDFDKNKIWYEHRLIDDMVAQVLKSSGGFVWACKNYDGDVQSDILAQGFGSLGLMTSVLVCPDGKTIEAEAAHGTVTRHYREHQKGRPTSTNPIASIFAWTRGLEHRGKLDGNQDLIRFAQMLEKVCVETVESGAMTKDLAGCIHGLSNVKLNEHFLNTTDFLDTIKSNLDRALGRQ
# How it was run: (§1)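 Compound was added to all wells at once with a multichannel pipettor. Reagent was then dispensed to start the reaction. Every condition was done in four technical replicates.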
# R140Q IDH2 [2] = target: T2, R140Q IDH2 (Homo sapiens, UniProt P48735, R140Q); experiment: as above; settings: 6.0 mM 2OG and 6.0 mM test compound, 0.03 μM R140Q IDH2, 50 μM NADPH
# T2 construct: made in house; host or cells: Sf21 insect cells (cell pellets prepared at Evotec)
# T2 sequence (P48735 40-452 R140Q): T1 sequence (P48735 40-452 R172K) with R101Q, K133R
# How it was run: as §1
# R132H IDH1 [3] = target: T3, R132H IDH1 (Homo sapiens, UniProt O75874, R132H); experiment: as above; parameters: made in house; host or cells: Escherichia coli BL21(DE3) pLyS; settings: […] 2OG and […] test compound, 0.03 μM R132H IDH1, 50 μM NADPH
# How it was run: as §1
# Target sequence in this assay (O75874 whole entry R132H): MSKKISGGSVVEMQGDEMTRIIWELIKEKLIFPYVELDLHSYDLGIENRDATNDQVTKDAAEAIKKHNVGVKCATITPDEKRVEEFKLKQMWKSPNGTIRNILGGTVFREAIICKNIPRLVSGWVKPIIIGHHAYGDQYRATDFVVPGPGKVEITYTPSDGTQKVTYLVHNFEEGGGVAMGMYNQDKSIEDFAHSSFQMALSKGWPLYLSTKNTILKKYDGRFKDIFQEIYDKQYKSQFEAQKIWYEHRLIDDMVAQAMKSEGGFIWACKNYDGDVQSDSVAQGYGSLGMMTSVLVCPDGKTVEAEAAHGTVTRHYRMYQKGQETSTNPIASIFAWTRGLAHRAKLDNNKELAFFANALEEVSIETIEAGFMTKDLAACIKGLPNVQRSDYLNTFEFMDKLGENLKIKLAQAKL
# R132H IDH1 [4] = target: T3, R132H IDH1; experiment: Steady-state kinetics, absorbance assay; parameters: made in house; host or cells: Escherichia coli BL21(DE3) pLyS
# Method: (§2) Compounds were dispensed using a CyBio SDW-CW CyBi-Well Simultaneous Pipettor and assay started using a ThermoFisher Multidrop Combi reagent dispenser.
# (§3) Reactions were performed as technical duplicates, and all assays were carried out in two independent duplicates.
# Target sequence in this assay (O75874 whole entry R132H): as above
# WT IDH2 [5] = target: T4, WT IDH2 (Homo sapiens, UniProt P48735); experiment: Absorbance assay, substrate activity in the absence of DL-isocitrate; settings: no DL-isocitrate; […] test compound, 75 μM NADP+, 2.0 nM WT IDH2; compared to DL-isocitrate
# T4 construct: made in house; host or cells: Sf21 insect cells (cell pellets prepared at Evotec)
# T4 sequence (P48735 40-452): T1 sequence (P48735 40-452 R172K) with K133R
# How it was run: as §1
# WT IDH1 [6] = target: T5, WT IDH1 (Homo sapiens, UniProt O75874); experiment: as above; settings: no DL-isocitrate; […] test compound, 75 μM NADP+, 2.0 nM WT IDH1; compared to DL-isocitrate
# T5 construct: made in house; host or cells: Escherichia coli BL21(DE3) pLyS
# T5 sequence (O75874 whole entry): as the sequence (O75874 whole entry R132H) above, with H132R counted along it
# How it was run: as §1
# R132H IDH1 [7] = target: T3, R132H IDH1; experiment: Electrochemical assay (FNR+R132H IDH1)@ITO/PGE electrode; parameters: made in house; host or cells: Escherichia coli BL21(DE3) pLyS (IDH1 R132H); settings: for predicted change in catalytic rate: simulated from experimental Km and vmax, if 500 μM substrate consumed at the electrode-solution interface per scan
# Method: Assays were carried out in an anaerobic glovebox (Glove Box Technology) under a nitrogen atmosphere. A potentiostat (Autolab PGSTAT 10) running on Nova software was used for all experiments. As previously described, the electrochemical apparatus included an Autolab electrode rotator, a two-chamber custom-made glass electrochemical cell, and custom-made rotating pyrolytic graphite edge (PGE) electrodes ([55]). Platinum wire was used as the counter electrode; it was placed in the working electrode chamber. Electrode potentials (E) were measured against a saturated calomel electrode and converted to the standard hydrogen electrode using a temperature-dependent equation (at 25 °C: ESHE = ESCE + 0.2412 V) ([55]). Nanoporous indium tin oxide (ITO) electrodes were made by electrophoretically depositing ITO nanoparticles (<50 nm, Sigma-Aldrich) onto PGE electrodes (ITO/PGE) as previously described ([55]). […] In all experiments, 0.85 nmol (homodimer basis) of IDH1 R132H was used; the amount of coloaded FNR was adjusted to achieve the desired enzyme loading ratio. Electrodes loaded with enzyme were thoroughly rinsed using buffer solution before each experiment to remove excess enzyme. […]
# and controlled electrochemically under steady-state conditions (1).
# Conditions: 25 °C, mixed buffer (20 […]
# mM each MES, TAPS, CHES, pH 8.0), 10 mM MgCl2, 10 µM NADPH, 4 mL cell volume, (FNR+R132H IDH1)@ITO/PGE electrode, electrode area 0.06 cm2, rotated at 1000 rpm, E = –0.513 V vs SHE, enzyme loading ratios (molar): FNR/R132H IDH1; 2.5 (dimer basis).
# (1 picture or pasted object on this page, not shown here)
# Target sequence in this assay (O75874 2-414 R132H): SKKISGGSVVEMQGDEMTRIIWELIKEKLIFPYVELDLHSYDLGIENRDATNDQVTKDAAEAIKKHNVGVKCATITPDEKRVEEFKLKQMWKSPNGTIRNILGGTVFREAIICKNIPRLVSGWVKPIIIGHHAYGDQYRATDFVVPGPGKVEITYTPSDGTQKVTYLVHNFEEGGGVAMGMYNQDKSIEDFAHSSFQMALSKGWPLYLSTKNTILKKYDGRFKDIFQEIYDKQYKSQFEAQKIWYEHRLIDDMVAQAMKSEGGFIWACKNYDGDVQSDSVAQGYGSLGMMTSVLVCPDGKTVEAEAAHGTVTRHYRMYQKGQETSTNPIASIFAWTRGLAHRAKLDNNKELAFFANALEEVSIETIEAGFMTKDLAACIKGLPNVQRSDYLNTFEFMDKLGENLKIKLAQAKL
# WT IDH2 [8] = target: T4, WT IDH2; experiment: Absorbance assay, WT activity in the presence of equimolar DL-isocitrate (inhibition); settings: […] isocitrate and […] test compound, 75 μM NADP+, 2.0 nM WT IDH2
# How it was run: as §1
# WT IDH1 [9] = target: T5, WT IDH1; experiment: as above; settings: […] isocitrate and […] test compound, 75 μM NADP+, 2.0 nM WT IDH1
# How it was run: as §1
# R140Q IDH2 [10] = target: T2, R140Q IDH2; experiment: Steady-state kinetics, absorbance assay; settings: 0.03 μM enzyme, 50 μM NADPH, 20 mM MgCl2, pH 8.0
# Method: as §2, §3
# R172K IDH2 [11] = target: T1, R172K IDH2; experiment: Steady-state kinetics, absorbance assay; settings: 0.03 μM enzyme, 50 μM NADPH, 20 mM MgCl2, pH 8.0
# Method: as §2, §3
# R132H IDH1 [12] = target: T3, R132H IDH1; experiment: Absorbance assay (NADPH consumption), substrate turnover in the absence of 2OG; parameters: made in house; host or cells: Escherichia coli BL21(DE3) pLyS; settings: no 2OG; […] test compound, 0.03 μM R132H IDH1, 50 μM NADPH; 2OG = 100
# How it was run: as §1
# Target sequence in this assay (O75874 whole entry R132H): as the sequence (O75874 whole entry R132H) above
# R172K IDH2 [13] = target: T1, R172K IDH2; experiment: as above; settings: no 2OG; 1.0 mM test compound, 0.03 μM R172K IDH2, 50 μM NADPH; 2OG = 100
# How it was run: as §1
# R140Q IDH2 [14] = target: T2, R140Q IDH2; experiment: as above; settings: no 2OG; 6.0 mM test compound, 0.03 μM R140Q IDH2, 50 μM NADPH; 2OG = 100
# How it was run: as §1
SMILES,activity [%] (%-substrate conversion after 20 min incubation) (R172K IDH2 [1]),activity [%] (%-substrate conversion after 20 min incubation) (R140Q IDH2 [2]),activity [%] (%-substrate conversion after 20 min incubation) (R132H IDH1 [3]),"Kmapp (R132H IDH1 [4]; 0.03 μM enzyme, 50 μM NADPH, 20 mM MgCl2, pH 8.0) [mM]","Vmax (R132H IDH1 [4]; experimental value used for Michaelis-Menten simulation, Fig. 3H) [µM/min]",activity [%] (%-substrate conversion after 20 min incubation) (WT IDH2 [5]),activity [%] (%-substrate conversion after 20 min incubation) (WT IDH1 [6]),"decrease of R132H IDH1 faradaic 'coupled' current during each scan (R132H IDH1 [7]; cyclic voltammetry, stationary electrode, 20 μM NADPH, 10 mM MgCl2, pH 8) [%]",predicted change in catalytic rate (R132H IDH1 [7]) [%],activity [%] (%-substrate conversion after 20 min incubation) (WT IDH2 [8]),activity [%] (%-substrate conversion after 20 min incubation) (WT IDH1 [9]),Kmapp (R140Q IDH2 [10]) [mM],kcatapp (R172K IDH2 [11]) [s⁻¹],"Vmax (predicted for single enantiomer) (R132H IDH1 [4]; predicted, Fig. 3H simulation) [µM/min]",activity [%] (%-substrate conversion after 20 min incubation) (R132H IDH1 [12]),activity [%] (%-substrate conversion after 20 min incubation) (R172K IDH2 [13]),activity [%] (%-substrate conversion after 20 min incubation) (R140Q IDH2 [14])
"CC(CC(=O)C(=O)O)C(=O)O (centres unmarked) [compound 12, 4-methyl-2OG]",112 ± 13,281 ± 4,161 ± 26,12,9.6,< 10,< 10,−43,−22,100±4,107±4,–,–,–,–,–,–
"O=C(O)CC(Cc1ccccc1)C(=O)C(=O)O (centres unmarked) [compound 7, 3-benzyl-2OG]",114 ± 4,91 ± 8,229 ± 21,–,–,< 10,< 10,–,–,99±1,94±1,3.8 to 7.5,–,–,–,–,–
CCCC(CC(=O)O)C(=O)C(=O)O (racemic) [compound 3],105 ± 6,632 ± 68,294 ± 31,–,–,< 10,< 10,–,–,96±5,105±5,–,~2.7,–,–,–,–
CCC(CC(=O)O)C(=O)C(=O)O (racemic) [compound 2],131 ± 16,865 ± 78,317 ± 12,–,–,< 10,< 10,–,–,96±3,98±10,3.8 to 7.5,–,–,–,–,–
"CC(CC(=O)C(=O)O)C(=O)O (single isomer, unassigned) [enantiopure 12]",–,–,–,–,–,–,–,–,−46,–,–,–,–,9.6,–,–,–
CC(CC(=O)O)C(=O)O (racemic) [DL-2-methylsuccinic acid],102 ± 9,115 ± 12,104 ± 3,–,–,< 10,< 10,–,–,99 ± 3,103 ± 2,–,–,–,< 10,< 10,< 10
